Assay results: ChEMBL document CHEMBL1914451, “The cephalostatins. 21. Synthesis of bis-steroidal pyrazine rhamnosides (1)” (2011)
Values after ≈ are worked out from the molar mass of the structure shown. Blank lines part the entries; values can stand above or below the compound they belong to. Active and inactive are the calls of the source. The calls are words filed in the database; no cut-off is given here.

Experiments:
P388 = assay: Antiproliferative activity against mouse P388 cells; type: functional; settings: read-out: ED50 (the source's name)
Enterococcus faecalis [1] = assay: Antibacterial activity against Enterococcus faecalis ATCC 29212 by broth microdilution assay; type: functional
Cryptococcus neoformans = assay: Antifungal activity against Cryptococcus neoformans ATCC 90112 at 64 ug/ml by broth microdilution assay; type: functional, organism-based
Escherichia coli = assay: Antibacterial activity against Escherichia coli ATCC 25922 at 64 ug/ml by broth microdilution assay; type: functional, organism-based
Streptococcus pneumoniae = assay: Antibacterial activity against Streptococcus pneumoniae ATCC 6303 at 64 ug/ml by broth microdilution assay; type: functional, organism-based
SF-268 = assay: Growth inhibition of human SF268 cells; type: functional
Neisseria gonorrhoeae = assay: Antibacterial activity against Neisseria gonorrhoeae ATCC 49226 at 64 ug/ml by broth microdilution assay; type: functional, organism-based
Staphylococcus aureus = assay: Antibacterial activity against Staphylococcus aureus ATCC 29213 at 64 ug/ml by broth microdilution assay; type: functional, organism-based
Candida albicans = assay: Antifungal activity against Candida albicans ATCC 90028 at 64 ug/ml by broth microdilution assay; type: functional, organism-based
[2] = system: Stenotrophomonas maltophilia; assay: Antibacterial activity against Stenotrophomonas maltophilia ATCC 13637 at 64 ug/ml by broth microdilution assay; type: functional, organism-based
NCI-H460 = assay: Growth inhibition of human NCI-H460 cells; type: functional
BXPC-3 = assay: Growth inhibition of human BxPC3 cells; type: functional
DU-145 = assay: Growth inhibition of human DU145 cells; type: functional
MCF7 = assay: Growth inhibition of human MCF7 cells; type: functional
Micrococcus luteus = assay: Antibacterial activity against Micrococcus luteus Presque Isle 456 at 64 ug/ml by broth microdilution assay; type: functional, organism-based
Enterococcus faecalis [3] = assay: Antibacterial activity against Enterococcus faecalis ATCC 29212 at 64 ug/ml by broth microdilution assay; type: functional, organism-based
KM-20L2 = assay: Growth inhibition of human KM20L2 cells; type: functional
Enterobacter cloacae = assay: Antibacterial activity against Enterobacter cloacae ATCC 13047 at 64 ug/ml by broth microdilution assay; type: functional, organism-based

Compound: C[C@@H]1O[C@@H](OC/C=C2\CC[C@H]3[C@@H]4CCC5=CC(=O)CC[C@]5(C)[C@H]4[C@@H](O)C[C@]23C)[C@H](O)[C@H](O)[C@H]1O
EC50 (P388): > 100 µg/mL

Compound: CC(=O)O[C@@H]1[C@@H](OC(C)=O)[C@H](C)O[C@H]2OC(C)(OC/C=C3\CC[C@H]4[C@@H]5CC[C@H]6Cc7nc8c(nc7C[C@]6(C)[C@H]5[C@@H](O)C[C@]34C)C[C@@H]3CC[C@@H]4[C@H]([C@@H](O)C[C@]5(C)/C(=C/COC6(C)O[C@@H]7O[C@@H](C)[C@H](OC(C)=O)[C@@H](OC(C)=O)[C@H]7O6)CC[C@@H]45)[C@@]3(C)C8)O[C@@H]21 (stereo partly specified)
EC50 (P388): > 10 µg/mL

Compound: CC(=O)O[C@@H]1[C@@H](OC(C)=O)[C@H](C)O[C@H]2OC(C)(OC/C=C3\CC[C@H]4[C@@H]5CCC6=CC(=O)CC[C@]6(C)[C@H]5[C@@H](O)C[C@]34C)O[C@@H]21 (stereo partly specified)
EC50 (P388): 9.5 µg/mL (≈ 15.8 µM)

Compound: CC(=O)O[C@@H]1[C@@H](OC(C)=O)[C@H](C)O[C@@H](OC/C=C2\CC[C@H]3[C@@H]4CCC5=CC(=O)CC[C@]5(C)[C@H]4[C@@H](O)C[C@]23C)[C@@H]1OC(C)=O
EC50 (P388): > 10 µg/mL

Compound: C=C[C@]1(C)CCC2=C1C[C@H](O)[C@H]1[C@H]2CC[C@H]2Cc3nc4c(nc3C[C@@]21C)C[C@@H]1CC[C@H]2C3=C(C[C@H](O)[C@@H]2[C@@]1(C)C4)[C@](C)(C=C)CC3
EC50 (P388): > 10 µg/mL

Compound: C[C@@H]1O[C@H]2OC(C)(OC/C=C3\CC[C@H]4[C@@H]5CCC6=CC(=O)CC[C@]6(C)[C@H]5[C@@H](O)C[C@]34C)O[C@@H]2[C@H](O)[C@H]1O (stereo partly specified)
EC50 (P388): 5.2 µg/mL (≈ 10 µM)

Compound: CC(=O)OC/C=C1\CC[C@H]2[C@@H]3CC[C@H]4CC(=O)CC[C@]4(C)[C@H]3[C@@H](O)C[C@]12C
EC50 (P388): 16.6 µg/mL (≈ 44.3 µM)

Compound: CC(=O)O[C@@H]1[C@@H](OC(C)=O)[C@H](C)O[C@H](OC/C=C2\CC[C@H]3[C@@H]4CC[C@H]5Cc6nc7c(nc6C[C@]5(C)[C@H]4[C@@H](O)C[C@]23C)C[C@@H]2CC[C@@H]3[C@H]([C@@H](O)C[C@]4(C)/C(=C/CO[C@H]5O[C@@H](C)[C@H](OC(C)=O)[C@@H](OC(C)=O)[C@H]5OC(C)=O)CC[C@@H]34)[C@@]2(C)C7)[C@@H]1OC(C)=O
EC50 (P388): > 10 µg/mL

Compound: CC(=O)OC/C=C1\CC[C@H]2[C@@H]3CC[C@H]4CC(=O)[C@H](N=[N+]=[N-])C[C@]4(C)[C@H]3[C@@H](O)C[C@]12C
EC50 (P388): 12 µg/mL (≈ 28.9 µM)

Compound: CC(=O)OC/C=C1\CC[C@H]2[C@@H]3CCC4=CC(=O)CC[C@]4(C)[C@H]3[C@@H](O)C[C@]12C
EC50 (P388): > 100 µg/mL

Compound: CC(=O)OC/C=C1\CC[C@H]2[C@@H]3CC[C@H]4CC(=O)[C@H](Br)C[C@]4(C)[C@H]3[C@@H](O)C[C@]12C
EC50 (P388): 6.6 µg/mL (≈ 14.6 µM)

Compound: CC(=O)O[C@@H]1[C@@H](OC(C)=O)[C@H](C)O[C@@H](OC/C=C2\CC[C@H]3[C@@H]4CC[C@H]5Cc6nc7c(nc6C[C@]5(C)[C@H]4[C@@H](O)C[C@]23C)C[C@@H]2CC[C@@H]3[C@H]([C@@H](O)C[C@]4(C)/C(=C/CO[C@H]5O[C@@H](C)[C@H](OC(C)=O)[C@@H](OC(C)=O)[C@H]5OC(C)=O)CC[C@@H]34)[C@@]2(C)C7)[C@@H]1OC(C)=O
EC50 (P388): > 10 µg/mL

Continued, in another order:

MIC (Enterococcus faecalis [1]): 32 µg/mL (≈ 43.2 µM)
EC50 (P388): 77.2 µg/mL (≈ 104 µM)
Compound: CC(=O)OC/C=C1\CC[C@H]2[C@@H]3CC[C@H]4Cc5nc6c(nc5C[C@]4(C)[C@H]3[C@@H](O)C[C@]12C)C[C@@H]1CC[C@@H]2[C@H]([C@@H](O)C[C@]3(C)/C(=C/COC(C)=O)CC[C@@H]23)[C@@]1(C)C6

GI50 (NCI-H460): 2.2 µg/mL (≈ 3.35 µM)
GI50 (BXPC-3): 1.3 µg/mL (≈ 1.98 µM)
GI50 (DU-145): 1.8 µg/mL (≈ 2.74 µM)
GI50 (MCF7): 1.3 µg/mL (≈ 1.98 µM)
EC50 (P388): 1.5 µg/mL (≈ 2.28 µM)
Compound: C[C@]12Cc3nc4c(nc3C[C@@H]1CC[C@@H]1[C@@H]2[C@@H](O)C[C@]2(C)/C(=C/CO)CC[C@@H]12)C[C@@]1(C)[C@@H](CC[C@@H]2[C@@H]1[C@@H](O)C[C@]1(C)/C(=C/CO)CC[C@@H]21)C4
Activity (Cryptococcus neoformans): inactive
Activity (Escherichia coli): inactive
Activity (Streptococcus pneumoniae): inactive
GI50 (SF-268): 1.7 µg/mL (≈ 2.59 µM)
Activity (Neisseria gonorrhoeae): inactive
Activity (Staphylococcus aureus): inactive
Activity (Candida albicans): inactive
Activity [2]: inactive
Activity (Micrococcus luteus): inactive
Activity (Enterococcus faecalis [3]): inactive
GI50 (KM-20L2): 1.7 µg/mL (≈ 2.59 µM)
Activity (Enterobacter cloacae): inactive

GI50 (NCI-H460): 3.8 µg/mL (≈ 3.68 µM)
GI50 (BXPC-3): 2.1 µg/mL (≈ 2.03 µM)
GI50 (DU-145): 3 µg/mL (≈ 2.9 µM)
GI50 (MCF7): 2.8 µg/mL (≈ 2.71 µM)
EC50 (P388): > 10 µg/mL
Compound: C[C@@H]1O[C@H]2OC(C)(OC/C=C3\CC[C@H]4[C@@H]5CC[C@H]6Cc7nc8c(nc7C[C@]6(C)[C@H]5[C@@H](O)C[C@]34C)C[C@@H]3CC[C@@H]4[C@H]([C@@H](O)C[C@]5(C)/C(=C/COC6(C)O[C@@H]7O[C@@H](C)[C@H](O)[C@@H](O)[C@H]7O6)CC[C@@H]45)[C@@]3(C)C8)O[C@@H]2[C@H](O)[C@H]1O (stereo partly specified)
Activity (Cryptococcus neoformans): inactive
Activity (Escherichia coli): inactive
Activity (Streptococcus pneumoniae): inactive
GI50 (SF-268): 3 µg/mL (≈ 2.9 µM)
Activity (Neisseria gonorrhoeae): inactive
Activity (Staphylococcus aureus): inactive
Activity (Candida albicans): inactive
Activity [2]: inactive
Activity (Micrococcus luteus): inactive
Activity (Enterococcus faecalis [3]): inactive
GI50 (KM-20L2): 3.3 µg/mL (≈ 3.19 µM)
Activity (Enterobacter cloacae): inactive

GI50 (NCI-H460): 1.8 µg/mL (≈ 1.9 µM)
GI50 (BXPC-3): 1.8 µg/mL (≈ 1.9 µM)
GI50 (DU-145): 2 µg/mL (≈ 2.11 µM)
GI50 (MCF7): 1.8 µg/mL (≈ 1.9 µM)
EC50 (P388): > 10 µg/mL
Compound: C[C@@H]1O[C@H](OC/C=C2\CC[C@H]3[C@@H]4CC[C@H]5Cc6nc7c(nc6C[C@]5(C)[C@H]4[C@@H](O)C[C@]23C)C[C@@H]2CC[C@@H]3[C@H]([C@@H](O)C[C@]4(C)/C(=C/CO[C@H]5O[C@@H](C)[C@H](O)[C@@H](O)[C@H]5O)CC[C@@H]34)[C@@]2(C)C7)[C@H](O)[C@H](O)[C@H]1O
GI50 (SF-268): 1.8 µg/mL (≈ 1.9 µM)
GI50 (KM-20L2): 1.8 µg/mL (≈ 1.9 µM)

EC50 (P388): > 10 µg/mL
Compound: CC(=O)O[C@@H]1[C@@H](OC(C)=O)[C@H](C)O[C@@H](OC/C=C2\CC[C@H]3[C@@H]4CC[C@H]5Cc6nc7c(nc6C[C@]5(C)[C@H]4[C@@H](O)C[C@]23C)C[C@@H]2CC[C@@H]3[C@H]([C@@H](O)C[C@]4(C)/C(=C/CO[C@@H]5O[C@@H](C)[C@H](OC(C)=O)[C@@H](OC(C)=O)[C@H]5OC(C)=O)CC[C@@H]34)[C@@]2(C)C7)[C@@H]1OC(C)=O
